Experimental data reported in ChEMBL document CHEMBL2073909 (J Pharmacol Exp Ther, 1999).

Columns and labels:
[1] = molecular target: T1, Hepatic sodium/bile acid cotransporter (Homo sapiens, UniProt Q14973); format: functional, cell-based, HeLa
T1 sequence (Q14973 whole entry): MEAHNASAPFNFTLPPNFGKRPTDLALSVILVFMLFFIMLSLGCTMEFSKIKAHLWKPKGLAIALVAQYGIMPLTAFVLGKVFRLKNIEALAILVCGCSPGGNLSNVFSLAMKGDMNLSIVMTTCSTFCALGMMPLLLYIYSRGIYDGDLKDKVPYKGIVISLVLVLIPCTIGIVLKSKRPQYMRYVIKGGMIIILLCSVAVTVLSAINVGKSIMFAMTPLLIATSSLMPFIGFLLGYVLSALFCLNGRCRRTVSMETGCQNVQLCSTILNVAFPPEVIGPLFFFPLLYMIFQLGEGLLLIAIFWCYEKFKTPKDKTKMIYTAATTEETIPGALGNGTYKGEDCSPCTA

[2] = molecular target: T1, Hepatic sodium/bile acid cotransporter; test: TP_TRANSPORTER: inhibition of Taurocholate uptake (Taurocholate: 5 uM, Deoxycholate: 100 uM) in NTCP-expressing HeLa cells; format: functional, cell-based
[3] = molecular target: T1, Hepatic sodium/bile acid cotransporter; test: TP_TRANSPORTER: inhibition of Taurocholate uptake (Taurocholate: 5 uM, Chlorpropamide: 100 uM) in NTCP-expressing HeLa cells; format: functional, cell-based
[4] = molecular target: T1, Hepatic sodium/bile acid cotransporter; test: TP_TRANSPORTER: inhibition of Taurocholate uptake (Taurocholate: 5 uM, Progesterone: 100 uM) in NTCP-expressing HeLa cells; format: functional, cell-based

Compound	IC50 [1]	also measured
C[C@H](CCC(=O)O)[C@H]1CC[C@H]2[C@@H]3[C@@H](O)C[C@@H]4C[C@H](O)CC[C@]4(C)[C@H]3CC[C@]12C [URSODIOL]	3.6 µM	–
CC(C)NC[C@H](O)COc1cccc2ccccc12 [LEVOPROPRANOLOL]	6.1 µM	–
CC(=O)N1CCN(c2ccc(OCC3COC(Cn4ccnc4)(c4ccc(Cl)cc4Cl)O3)cc2)CC1 (stereo not drawn) [KETOCONAZOLE]	264 µM	–
CC(C)NCC(O)COc1cccc2ccccc12 (stereo not drawn) [PROPRANOLOL]	5.5 µM	–
C[C@H](CCC(=O)O)[C@H]1CC[C@H]2[C@@H]3CC[C@@H]4C[C@H](O)CC[C@]4(C)[C@H]3C[C@H](O)[C@]12C [DEOXYCHOLIC ACID]	–	Inhibition [2]: inhibitor [(at a rough estimate) 70 % inhibition]
O=C1OC(c2ccc(O)c(S(=O)(=O)O)c2)(c2ccc(O)c(S(=O)(=O)O)c2)c2c(Br)c(Br)c(Br)c(Br)c21 [SULFOBROMOPHTHALEIN SODIUM]	7.3 µM	–
CCCNC(=O)NS(=O)(=O)c1ccc(Cl)cc1 [CHLORPROPAMIDE]	–	Inhibition [3]: inhibitor [(at a rough estimate) 30 % inhibition]
CC(=O)[C@H]1CC[C@H]2[C@@H]3CCC4=CC(=O)CC[C@]4(C)[C@H]3CC[C@]12C [PROGESTERONE]	–	Inhibition [4]: inhibitor [(at a rough estimate) 80 % inhibition]
